From the supplement of paper PMC13207355

Tests used:
Details in all cases: exposure time: 72 h
E31 [1] = patient-derived glioblastoma stem cells of proneural subtype; experiment: surviving fraction (nuclei count normalised to DMSO); higher = more cells surviving (less toxic)
E21 [2] = patient-derived glioblastoma stem cells of mesenchymal subtype; experiment: as above
E28 [3] = patient-derived glioblastoma stem cells of classical subtype; experiment: as above
E34 [4] = patient-derived glioblastoma stem cells of proneural subtype; experiment: as above
E57 [5] = patient-derived glioblastoma stem cells of mesenchymal subtype; experiment: as above
FT3469 [6] = normal neural stem cell line; experiment: as above
E13 [7] = patient-derived glioblastoma stem cells of classical subtype; experiment: as above
E31 [8] = experiment: phenotypic distance (Euclidean, principal components) from DMSO controls (arbitrary units); higher = stronger morphological change
E21 [9] = experiment: as above
E28 [10] = experiment: as above
E34 [11] = experiment: as above
E57 [12] = experiment: as above
FT3469 [13] = experiment: as above
E13 [14] = experiment: as above
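Wherever phenotypic distance (Euclidean, principal components) from DMSO controls is given: cell Painting imaging in 384-well plates, CellProfiler features reduced to at least 20 principal components, Euclidean distance versus same-plate DMSO vehicle wells (0.1% v/v), median over six images per well.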
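Wherever surviving fraction (nuclei count normalised to DMSO) is given: nuclei counted by high-content imaging of Hoechst-stained cells in laminin-coated 384-well plates, relative to 0.1% DMSO vehicle wells, with staurosporine as cell-death control.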

CC1(C(=O)O)C2CCC(O2)C1(C)C(=O)O (configuration not stated) [Cantharidic Acid]
Details | phenotypic distance | surviving fraction
E13 [7], 4.1 nM | – | 0.839
E13 [7], 12.3 nM | – | 0.973
E13 [7], 37 nM | – | 0.995
E13 [7], 111.1 nM | – | 1.11
E13 [7], 333.3 nM | – | 0.921
E13 [7], 1000 nM | – | 1.02
E13 [7], 3000 nM | – | 0.939
E13 [14], 4.1 nM | 0.746 | –
E13 [14], 12.3 nM | 0.673 | –
E13 [14], 37 nM | 0.774 | –
E13 [14], 111.1 nM | 0.872 | –
E13 [14], 333.3 nM | 0.83 | –
E13 [14], 1000 nM | 0.671 | –
E13 [14], 3000 nM | 2.26 | –
E21 [2], 4.1 nM | – | 0.955
E21 [2], 12.3 nM | – | 0.853
E21 [2], 37 nM | – | 1.11
E21 [2], 111.1 nM | – | 1
E21 [2], 333.3 nM | – | 1.03
E21 [2], 1000 nM | – | 0.954
E21 [2], 3000 nM | – | 0.922
E21 [9], 4.1 nM | 0.625 | –
E21 [9], 12.3 nM | 0.711 | –
E21 [9], 37 nM | 1.21 | –
E21 [9], 111.1 nM | 0.773 | –
E21 [9], 333.3 nM | 0.585 | –
E21 [9], 1000 nM | 0.482 | –
E21 [9], 3000 nM | 2.17 | –
E28 [3], 4.1 nM | – | 0.901
E28 [3], 12.3 nM | – | 1.05
E28 [3], 37 nM | – | 0.971
E28 [3], 111.1 nM | – | 1.07
E28 [3], 333.3 nM | – | 1.11
E28 [3], 1000 nM | – | 1.15
E28 [3], 3000 nM | – | 0.771
E28 [10], 4.1 nM | 0.917 | –
E28 [10], 12.3 nM | 0.654 | –
E28 [10], 37 nM | 0.463 | –
E28 [10], 111.1 nM | 0.528 | –
E28 [10], 333.3 nM | 0.599 | –
E28 [10], 1000 nM | 0.909 | –
E28 [10], 3000 nM | 2.54 | –
E31 [1], 4.1 nM | – | 1.07
E31 [1], 12.3 nM | – | 1
E31 [1], 37 nM | – | 1.16
E31 [1], 111.1 nM | – | 1.05
E31 [1], 333.3 nM | – | 1.04
E31 [1], 1000 nM | – | 1.08
E31 [1], 3000 nM | – | 0.683
E31 [8], 4.1 nM | 1.05 | –
E31 [8], 12.3 nM | 0.816 | –
E31 [8], 37 nM | 1.07 | –
E31 [8], 111.1 nM | 1.09 | –
E31 [8], 333.3 nM | 0.68 | –
E31 [8], 1000 nM | 0.624 | –
E31 [8], 3000 nM | 1.67 | –
E34 [4], 4.1 nM | – | 0.916
E34 [4], 12.3 nM | – | 1.08
E34 [4], 37 nM | – | 0.914
E34 [4], 111.1 nM | – | 1.1
E34 [4], 333.3 nM | – | 1.22
E34 [4], 1000 nM | – | 1.06
E34 [4], 3000 nM | – | 0.832
E34 [11], 4.1 nM | 1.38 | –
E34 [11], 12.3 nM | 1.36 | –
E34 [11], 37 nM | 1.46 | –
E34 [11], 111.1 nM | 1.49 | –
E34 [11], 333.3 nM | 1.07 | –
E34 [11], 1000 nM | 0.864 | –
E34 [11], 3000 nM | 3.29 | –
E57 [5], 4.1 nM | – | 0.985
E57 [5], 12.3 nM | – | 0.996
E57 [5], 37 nM | – | 0.944
E57 [5], 111.1 nM | – | 1.03
E57 [5], 333.3 nM | – | 1.04
E57 [5], 1000 nM | – | 1.03
E57 [5], 3000 nM | – | 0.947
E57 [12], 4.1 nM | 0.632 | –
E57 [12], 12.3 nM | 0.322 | –
E57 [12], 37 nM | 0.414 | –
E57 [12], 111.1 nM | 0.564 | –
E57 [12], 333.3 nM | 0.544 | –
E57 [12], 1000 nM | 0.751 | –
E57 [12], 3000 nM | 1.72 | –
FT3469 [6], 4.1 nM | – | 0.889
FT3469 [6], 12.3 nM | – | 0.855
FT3469 [6], 37 nM | – | 1.07
FT3469 [6], 111.1 nM | – | 1.03
FT3469 [6], 333.3 nM | – | 1
FT3469 [6], 1000 nM | – | 1.06
FT3469 [6], 3000 nM | – | 0.777
FT3469 [13], 4.1 nM | 1.06 | –
FT3469 [13], 12.3 nM | 0.717 | –
FT3469 [13], 37 nM | 0.644 | –
FT3469 [13], 111.1 nM | 0.683 | –
FT3469 [13], 333.3 nM | 0.991 | –
FT3469 [13], 1000 nM | 0.653 | –
FT3469 [13], 3000 nM | 2.25 | –

CC1=C(/C=C/C(C)=C/C=C/C(C)=C/C(=O)Nc2ccc(O)cc2)C(C)(C)CCC1 [Retinoic acid p-hydroxyanilide]
Details | phenotypic distance | surviving fraction
E13 [7], 4.1 nM | – | 0.963
E13 [7], 12.3 nM | – | 0.967
E13 [7], 37 nM | – | 1.09
E13 [7], 333.3 nM | – | 1.07
E13 [7], 1000 nM | – | 0.734
E13 [7], 3000 nM | – | 0.00947
E13 [14], 4.1 nM | 0.545 | –
E13 [14], 12.3 nM | 0.333 | –
E13 [14], 37 nM | 0.641 | –
E13 [14], 333.3 nM | 3.32 | –
E13 [14], 1000 nM | 4.24 | –
E13 [14], 3000 nM | 9.85 | –
E21 [2], 4.1 nM | – | 1.05
E21 [2], 12.3 nM | – | 0.947
E21 [2], 37 nM | – | 0.953
E21 [2], 333.3 nM | – | 1.02
E21 [2], 1000 nM | – | 0.781
E21 [2], 3000 nM | – | 0.00532
E21 [9], 4.1 nM | 0.779 | –
E21 [9], 12.3 nM | 0.993 | –
E21 [9], 37 nM | 0.775 | –
E21 [9], 333.3 nM | 1.03 | –
E21 [9], 1000 nM | 2.42 | –
E21 [9], 3000 nM | 10.8 | –
E28 [3], 4.1 nM | – | 1.11
E28 [3], 12.3 nM | – | 0.963
E28 [3], 37 nM | – | 1.13
E28 [3], 333.3 nM | – | 1.08
E28 [3], 1000 nM | – | 0.931
E28 [3], 3000 nM | – | 0.00413
E28 [10], 4.1 nM | 0.643 | –
E28 [10], 12.3 nM | 0.734 | –
E28 [10], 37 nM | 0.511 | –
E28 [10], 333.3 nM | 0.842 | –
E28 [10], 1000 nM | 1.73 | –
E28 [10], 3000 nM | 19.3 | –
E31 [1], 4.1 nM | – | 0.912
E31 [1], 12.3 nM | – | 0.905
E31 [1], 37 nM | – | 0.993
E31 [1], 333.3 nM | – | 1.05
E31 [1], 1000 nM | – | 0.927
E31 [1], 3000 nM | – | 0.00743
E31 [8], 4.1 nM | 0.825 | –
E31 [8], 12.3 nM | 0.482 | –
E31 [8], 37 nM | 0.638 | –
E31 [8], 333.3 nM | 1.69 | –
E31 [8], 1000 nM | 2.86 | –
E31 [8], 3000 nM | 18.6 | –
E34 [4], 4.1 nM | – | 1.28
E34 [4], 12.3 nM | – | 1.05
E34 [4], 37 nM | – | 0.937
E34 [4], 333.3 nM | – | 1.08
E34 [4], 1000 nM | – | 0.967
E34 [4], 3000 nM | – | 0.00196
E34 [11], 4.1 nM | 0.884 | –
E34 [11], 12.3 nM | 0.569 | –
E34 [11], 37 nM | 0.817 | –
E34 [11], 333.3 nM | 1.4 | –
E34 [11], 1000 nM | 2.38 | –
E34 [11], 3000 nM | 19.6 | –
E57 [5], 4.1 nM | – | 1.12
E57 [5], 12.3 nM | – | 1.08
E57 [5], 37 nM | – | 1.05
E57 [5], 333.3 nM | – | 1.06
E57 [5], 1000 nM | – | 1.03
E57 [5], 3000 nM | – | 0.00394
E57 [12], 4.1 nM | 0.591 | –
E57 [12], 12.3 nM | 0.726 | –
E57 [12], 37 nM | 0.599 | –
E57 [12], 333.3 nM | 0.631 | –
E57 [12], 1000 nM | 1.92 | –
E57 [12], 3000 nM | 15.3 | –
FT3469 [6], 4.1 nM | – | 1
FT3469 [6], 12.3 nM | – | 1.04
FT3469 [6], 37 nM | – | 1.04
FT3469 [6], 333.3 nM | – | 0.89
FT3469 [6], 1000 nM | – | 0.901
FT3469 [6], 3000 nM | – | 0.0056
FT3469 [13], 4.1 nM | 0.589 | –
FT3469 [13], 12.3 nM | 0.564 | –
FT3469 [13], 37 nM | 0.708 | –
FT3469 [13], 333.3 nM | 1.89 | –
FT3469 [13], 1000 nM | 2.61 | –
FT3469 [13], 3000 nM | 17.7 | –
